Laboratory results published in PubChem BioAssay AID1199 (EPA DSSTox, 2008).
Activity calls are given as the source filed them.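 The calls were made as follows: active = a tumour-causing dose and a tumour site recorded for mice in at least one sex group; inconclusive = only government mouse studies exist and were judged inadequate; inactive = mouse studies exist but none gave tumours.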

Tested on: mouse carcinogenicity bioassay, TD50 from CPDB
Test: DSSTox (CPDBAS) Carcinogenic Potency Database Summary Mouse Bioassay Results
Outline: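 Chronic long-term mouse cancer bioassays from literature and NCI/NTP, compiled per sex. TD50 is the standardized carcinogenic potency, using the most positive experiment per sex-species; target sites follow author opinion.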

[1] = TD50_Mouse_Note: no positive results, TargetSites_Mouse_Female: no positive results
[2] = TD50_Mouse_Note: TD50 is harmonic mean of more than one positive test, TargetSites_Mouse_Female: liver
[3] = TD50_Mouse_Note: TD50 is harmonic mean of more than one positive test, harmonic mean of TD50 includes a value for upper 99% confidence li, TargetSites_Mouse_Female: liver
[4] = TargetSites_Mouse_Female: liver

Question: For `Cc1cc2ncccc2c2nc(N)n(C)c12`, which Potency (TD50_Mouse_Note: TD50 is harmonic mean of more than one positive test, TargetSites_Mouse_Female: large intestine, liver, stomach) is on record?
Answer: The Potency was 0.073 mmol/kg/day.

Question: `C/C=C/C(=O)Oc1c(C(C)CCCCCC)cc([N+](=O)[O-])cc1[N+](=O)[O-]` (centres undefined) was tested. Which outcome [1] did it give?
Answer: Its outcome is “inactive; no positive results”.

Question: How did the Potency (TD50_Mouse_Note: TD50 is harmonic mean of more than one positive test, TargetSites_Mouse_Female: lung, stomach) turn out when `C=CCN(N)CC=C` was run?
Answer: The Potency was 0.264 mmol/kg/day.

Question: With `CCc1ccccc1` as the molecule, how does the Potency [2] read?
Answer: Its Potency is 15.1 mmol/kg/day.

Question: How did the outcome [1] turn out when `Cc1ccccc1OCC(O)CNCCn1cc(C)c(=O)[nH]c1=O` (centres undefined) was run?
Answer: The outcome was “inactive; no positive results”.

Question: With `Brc1cc(Br)c(-c2cc(Br)c(Br)cc2Br)cc1Br` as the molecule, how does the Potency [2] read?
Answer: The Potency was 0.000529 mmol/kg/day.

Question: `CCC(C)c1cc([N+](=O)[O-])cc([N+](=O)[O-])c1O` (centres undefined) was tested. Which outcome [1] did it give?
Answer: Its outcome is “inactive; no positive results”.

Question: Which Potency (TD50_Mouse_Note: TD50 is harmonic mean of more than one positive test, TargetSites_Mouse_Female: hematopoietic system, stomach) does the source give for `Nc1nc(/C=C/c2ccc([N+](=O)[O-])o2)no1` here?
Answer: Its Potency is 0.504 mmol/kg/day.

Question: With `O` as the molecule, how does the outcome [1] read?
Answer: Its outcome is “inactive; no positive results”.

Question: Which outcome (TD50_Mouse_Note: no positive results) does the source give for `[Cl-].[Hg+]` here?
Answer: Its outcome is “inactive; no positive results”.

Question: Which Potency (TargetSites_Mouse_Female: lung) does the source give for `NNCc1ccccc1` here?
Answer: Its Potency is 0.437 mmol/kg/day.

Question: For `CC(C)CCC[C@@H](C)[C@H]1CC[C@H]2[C@@H]3CC=C4C[C@@H](OC(=O)Cc5ccc(N(CCCl)CCCl)cc5)CC[C@]4(C)[C@H]3CC[C@]12C`, which Potency (TD50_Mouse_Note: TD50 is harmonic mean of more than one positive test, TargetSites_Mouse_Female: hematopoietic system, lung, myocardium) is on record?
Answer: The Potency was 0.000955 mmol/kg/day.

Question: For `C=CC1CC=CCC1` (centres undefined), which Potency (TargetSites_Mouse_Female: ovary) is on record?
Answer: Its Potency is 0.98 mmol/kg/day.

Question: Which outcome [1] does the source give for `c1ccc2[nH]ccc2c1` here?
Answer: Its outcome is “inactive”.

Question: Which Potency (TD50_Mouse_Note: TD50 is harmonic mean of more than one positive test, TargetSites_Mouse_Female: liver, lung, stomach) does the source give for `c1ccc2occc2c1` here?
Answer: Its Potency is 0.212 mmol/kg/day.

Question: How did the Potency turn out when `CCC1NC(=O)C2C(Cl)C(Cl)CN2C(=O)C(CO)NC(=O)CC(c2ccccc2)NC(=O)C(CO)NC1=O` (centres undefined) was run?
Answer: The Potency was 0.0412 mmol/kg/day.

Question: With `OCC(CO)(CBr)CBr` as the molecule, how does the Potency (TD50_Mouse_Note: TD50 is harmonic mean of more than one positive test, TargetSites_Mouse_Female: harderian gland, lung, subcutaneous tissue) read?
Answer: The Potency was 0.523 mmol/kg/day.

Question: Which Potency [2] does the source give for `CNc1ccc(N(CCO)CCO)cc1[N+](=O)[O-]` here?
Answer: Its Potency is 0.308 mmol/kg/day.

Question: What about the Potency [3] of the same molecule?
Answer: The Potency was 0.338 mmol/kg/day.

Question: For `Nc1ccc(NCCO)c([N+](=O)[O-])c1`, which outcome (TD50_Mouse_Note: no positive results, TargetSites_Mouse_Female: NTP bioassay inadequate) is on record?
Answer: The outcome was “inactive; no positive results”.

Question: Which Potency (TargetSites_Mouse_Female: no positive results) does the source give for `OCc1ccco1` here?
Answer: Its Potency is 2.68 mmol/kg/day.

Question: `Cc1cc(O)c(C)c2c1OC(C)(CCCC(C)CCCC(C)CCCC(C)C)CC2` (centres undefined) was tested. Which Potency did it give?
Answer: The Potency was 8.66 mmol/kg/day.

Question: How did the Potency [2] turn out when `NC(=O)OCC(COC(N)=O)c1ccccc1` was run?
Answer: The Potency was 31.1 mmol/kg/day.

Question: `C=CC(=C)Cl` was tested. Which Potency (TD50_Mouse_Note: TD50 is harmonic mean of more than one positive test, TargetSites_Mouse_Female: ear Zymbals gland, harderian gland, liver, lung, mammary gland, peritoneal cavity, stomach, subcutaneous tissue, vascula) did it give?
Answer: The Potency was 0.0923 mmol/kg/day.

Question: With `CCN(CC)C(=O)/C(Cl)=C(\C)OP(=O)(OC)OC` as the molecule, how does the outcome [1] read?
Answer: Its outcome is “inactive; no positive results”.

Question: How did the outcome [1] turn out when `O=S(=O)(O)c1ccc(N=Nc2c(O)ccc3cc(S(=O)(=O)O)ccc23)cc1` was run?
Answer: The outcome was “inactive; no positive results”.

Question: With `Nc1ccc2ccccc2c1S(=O)(=O)O` as the molecule, how does the outcome [1] read?
Answer: The outcome was “inactive; no positive results”.

Question: How did the Potency [4] turn out when `CO[C@H]1/C=C/O[C@@]2(C)Oc3c(C)c(O)c4c(O)c(c(/C=N/N5CCN(C)CC5)c(O)c4c3C2=O)NC(=O)/C(C)=C\C=C\[C@H](C)[C@H](O)[C@@H](C)[C@@H](O)[C@@H](C)[C@H](OC(C)=O)[C@@H]1C` was run?
Answer: Its Potency is 0.0408 mmol/kg/day.

Question: With `O=C(O)CCCc1ccc(N(CCCl)CCCl)cc1` as the molecule, how does the Potency (TD50_Mouse_Note: positive test results only by intraperitoneal or intravenous injection, TD50 is harmonic mean of more than one positive, TargetSites_Mouse_Female: lung) read?
Answer: The Potency was 0.000437 mmol/kg/day.

Question: How did the Potency [4] turn out when `CCCCCC` was run?
Answer: The Potency was 352 mmol/kg/day.

Question: For `c1ccc2c(c1)ccc1cc3c(ccc4ccccc43)cc12`, which Potency is on record?
Answer: Its Potency is 0.0211 mmol/kg/day.

Question: For `Cc1cc(C)c(N)cc1C`, which Potency (TD50_Mouse_Note: TD50 is harmonic mean of more than one positive test, TargetSites_Mouse_Female: liver, lung) is on record?
Answer: Its Potency is 0.265 mmol/kg/day.

Question: What about the Potency [4] of the same molecule?
Answer: Its Potency is 0.0453 mmol/kg/day.

Question: `Nc1nc(-c2ccc([N+](=O)[O-])o2)cs1` was tested. Which Potency (TargetSites_Mouse_Female: stomach) did it give?
Answer: Its Potency is 0.0373 mmol/kg/day.

Question: With `[Na+]` as the molecule, how does the outcome [1] read?
Answer: Its outcome is “inactive; no positive results”.

Question: How did the outcome (TD50_Mouse_Note: only experiment is NCI/NTP bioassay inadequate, TargetSites_Mouse_Female: NTP bioassay inadequate) turn out when `CNC[C@H](O)c1ccc(O)c(O)c1` was run?
Answer: Its outcome is “ntp bioassay inadequate”.

Question: For `Nc1ccccc1N`, which Potency [2] is on record?
Answer: Its Potency is 4.06 mmol/kg/day.

Question: `ClCCCl` was tested. Which Potency (TD50_Mouse_Note: TD50 is harmonic mean of more than one positive test, TargetSites_Mouse_Female: liver, lung, mammary gland, uterus) did it give?
Answer: Its Potency is 1.39 mmol/kg/day.

Question: `CCOP(=S)(OCC)Oc1ccc([N+](=O)[O-])cc1` was tested. Which outcome [1] did it give?
Answer: Its outcome is “inactive; no positive results”.

Question: With `Oc1ccccc1-c1ccccc1` as the molecule, how does the outcome [1] read?
Answer: Its outcome is “inactive; no positive results”.

Question: For `CC(O)CCl` (centres undefined), which outcome [1] is on record?
Answer: Its outcome is “inactive; no positive results”.

Question: With `O=[As]O` as the molecule, how does the outcome (TD50_Mouse_Note: no positive results, TargetSites_Mouse_BothSexes: no positive results) read?
Answer: Its outcome is “inactive”.

Question: `C=CCN=C=S` was tested. Which outcome [1] did it give?
Answer: Its outcome is “inactive; no positive results”.

Question: Which Potency [4] does the source give for `C=CCc1ccc(OC)cc1` here?
Answer: The Potency was 0.35 mmol/kg/day.

Question: With `CCC1(c2ccccc2)C(=O)N=C(O)NC1=O` (centres undefined) as the molecule, how does the Potency [3] read?
Answer: The Potency was 0.117 mmol/kg/day.

Question: For `C=C(C)CCl`, which Potency (TD50_Mouse_Note: TD50 is harmonic mean of more than one positive test, TargetSites_Mouse_Female: harderian gland, stomach) is on record?
Answer: Its Potency is 11 mmol/kg/day.

Question: What about the Potency (TD50_Mouse_Note: TD50 is harmonic mean of more than one positive test, TargetSites_Mouse_Female: stomach) of the same molecule?
Answer: The Potency was 0.858 mmol/kg/day.

Question: How did the outcome [1] turn out when `O=c1ccc(=O)[nH][nH]1` was run?
Answer: The outcome was “inactive; no positive results”.

Question: How did the Potency (TD50_Mouse_Note: TD50 is harmonic mean of more than one positive test, TargetSites_Mouse_Female: lung) turn out when `CC(C)CON=O` was run?
Answer: The Potency was 3.01 mmol/kg/day.
